# Test results taken from patent publication US11401278B2, “Macrocyclic indole derivatives” (The Broad Institute, Inc., priority 2017, dated 2022).
# Where a name gives a salt, the structure may show the parent alone.
# Target: MCL1 protein (Homo sapiens (Human), UniProt Q07820)
# Experiment: PIxEL: protein-protein interaction in permeabilized cells by ELISA (Assay 5)
# Type: cell-based
# Settings: permeabilized RKO cells, Biotin-BIM peptide 0.2 μM, serum free; median
# Method: PI×EL: Protein-Protein Interaction in Permeabilized Cells by ELISA
# Most MCL1 protein molecules are localized at the mitochondria outer membrane and sequester pro-apoptotic proteins through binding of their BCL2 homology domain 3 (BH3 domain). MEB buffer (150 mM mannitol, 10 mM HEPES pH 7.5, 50 mM KCl, 20 μM EDTA, 20 μM EGTA, 5 mM potassium succinate, 0.1% protease-free BSA (SIGMA) with low dose digitonin (0.002%) permeabilizes plasma membrane while leaves live mitochondria, where MCL1 maintains its native localization and conformation. Unlike biophysical assays (e.g. TR-FRET) that use truncated recombinant MCL1 protein, this assay uses full length endogenous MCL1 protein at mitochondria outer membrane. It measures the interaction between MCL1 protein and biotinylated BIM BH3 peptide. Compounds can compete with BIM BH3 peptide to bind to MCL1 protein. This serum free assay measures the affinity between MCL1 protein and compound in permeabilized cells, therefore it is not affected by serum binding and cell permeability, and can measure the intrinsic compound affinity.
# On day 1, RKO colon cancer cell line cells were plated at 0.8 million cells/ml, 100 μl/well in 96-well flat bottom TC plates (Corning). MCL1 antibody (Santa Cruz sc-12756) were diluted at 200 fold (final concentration 1 μg/ml) in carbonate buffer (Thermo Fisher Scientific, pH 9.6), and 50 μl of diluted antibody was added to each well of high bind ELISA plates (SARSTEDT). Each plate was tapped to make sure liquid covering entire bottom of wells and incubate at 37° C. overnight.
# On the second day, MCL1 antibody was washed from ELISA plate. 250 μl Odyssey® Blocking Buffer (PBS) (Li-Cor) was added to each well, incubated at room temperature for at least 1 hour, then washed once with 250 μl 1×PBST. Plates with RKO cells were gently washed once with 100 μl/well PBS, once with 100 μl/well MEB buffer without digitonin, then 100 μl of MEB buffer with 0.002% digitonin was gently added to each well. Compounds were added with HP Tecan compound dispenser in 3-fold dilution series, highest dose 30 μM, 10-dose per compound in quadruplicates. Biotin-BIM peptide (synthesized by 21st Century) was added with HP Tecan compound dispenser at 0.2 μM immediately after the addition of compounds. Plates were rocked for 1 hour at room temperature. Then MEB buffer was aspirated and 50 μl of CHAPS buffer (50 mM Tris-Cl, pH 7.4, 150 mM NaCl, 1% CHAPS, 1 mM EDTA, 1 mM EGTA, cOmplete protease inhibitors (Roche), PhosSTOP (Roche)) was added to each well. Plates were rocked for 1 hour at 4° C., then 45 μl cell lysate from each well were transferred to ELISA plates coated with MCL1 antibody. Plates were incubated overnight in the cold room with rocking.
# On the third day, ELISA plates were washed once with 250 μl 1×PBST. Streptavidin-poly-HRP (Thermo Fisher Scientific) was diluted to 20 ng/ml in Odyssey blocking buffer plus 0.05% Triton-100, and 100 μl was added to each well of the ELISA plate. Plates were incubated at room temperature for 1 hour with rocking, then washed with 100 μL 1×PBST for 3 times. Each SuperSignal ELISA Femto Maximum Sensitivity substrate was added to a 50-ml tube and mixed, then 100 μl of mixed substrate was added to each well. Plates were shaken for 1 minute then luminescence was measured by Envision plate reader […]. Signal of each well were normalized by no-compound control and no-cell control. IC50 was calculated using Graphic Pad PRISM software.
# Sequence of MCL1 protein (Q07820 whole entry): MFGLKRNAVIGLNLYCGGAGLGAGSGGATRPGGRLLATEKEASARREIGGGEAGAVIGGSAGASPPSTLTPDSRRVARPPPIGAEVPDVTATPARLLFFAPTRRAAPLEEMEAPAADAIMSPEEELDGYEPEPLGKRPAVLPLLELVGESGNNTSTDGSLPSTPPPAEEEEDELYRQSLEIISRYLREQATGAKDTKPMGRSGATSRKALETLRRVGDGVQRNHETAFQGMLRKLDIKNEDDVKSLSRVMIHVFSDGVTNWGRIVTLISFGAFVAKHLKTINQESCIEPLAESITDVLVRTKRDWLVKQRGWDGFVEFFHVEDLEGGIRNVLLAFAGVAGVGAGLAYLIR
row,SMILES,IC50
1,"Cc1c2c(nn1C)CN(C1CC1)S(=O)(=O)CCCn1c(C(=O)O)c(CCCOc3cccc4ccccc34)c3ccc(Cl)c-2c31 [Example 40, (rac)-4-chloro-14-cyclopropyl-2,3-dimethyl-7-[3-(1-naphthyloxy)propyl]-11,12,14,15-tetrahydro-2H,10H-pyrazolo[3′,4′:4,5][1,2,8]thiadiazacycloundecino[6,7,8-hi]indole-8-carboxylic acid 13,13-dioxide]",29400 nM
2,"Cc1c2c(nn1C)CNS(=O)(=O)CCCn1c(C(=O)O)c(CCCOc3cccc4cc(F)ccc34)c3ccc(Cl)c-2c31 (single isomer, unassigned; enantiomer 1) [Example 51, 4-chloro-7-{3-[(6-fluoronaphthalen-1-yl)oxy]propyl}-2,3-dimethyl-13,13-dioxo-10,11,12,13,14,15-hexahydro-2H-13lambda^6-pyrazolo[3′,4′:4,5][1,2,8]thiadiazacycloundecino[6,7,8-hi]indole-8-carboxylic acid (Enantiomer 1)]",458 nM
3,"CCc1c2c(nn1C)C(CCN1CCOCC1)N(C)S(=O)(=O)CCCn1c(C(=O)O)c(CCCOc3cccc4cc(F)ccc34)c3ccc(Cl)c-2c31 (racemic) [Example 73, (rac)-(4-chloro-3-ethyl-7-{3-[(6-fluoronaphthalen-1-yl)oxy]propyl}-2,14-dimethyl-15-[2-(morpholin-4-yl)ethyl]-13,13-dioxo-10,11,12,13,14,15-hexahydro-2H-13lambda^6-pyrazolo[3′,4′:4,5][1,2,8]thiadiazacycloundecino[6,7,8-hi]indole-8-carboxylic acid (Racemate 1)]",33.1 nM
4,"CCc1c2c(nn1C)CN(C1CC1)S(=O)(=O)CCCn1c(C(=O)O)c(CCCOc3cccc4cc(F)ccc34)c3ccc(Cl)c-2c31 (single isomer, unassigned; enantiomer 1) [Example 54, (−)-4-chloro-14-cyclopropyl-3-ethyl-7-{3-[(6-fluoronaphthalen-1-yl)oxy]propyl}-2-methyl-13,13-dioxo-10,11,12,13,14,15-hexahydro-2H-13lambda^6-pyrazolo[3′,4′:4,5][1,2,8]thiadiazacycloundecino[6,7,8-hi]indole-8-carboxylic acid N-ethylethanamine Salt (Enantiomer 1)]",360 nM

# More lines, now with the values ahead:
row,IC50,SMILES
1,329 nM,"CCc1c2c(nn1C)CN(C1CC1)S(=O)(=O)CCCn1c(C(=O)O)c(CCCOc3cccc4cc(F)ccc34)c3ccc(Cl)c-2c31 (racemic) [Example 53, (rac)-4-chloro-14-cyclopropyl-3-ethyl-7-{3-[(6-fluoro-1-naphthyl)oxy]propyl}-2-methyl-11,12,14,15-tetrahydro-2H,10H-pyrazolo[3′,4′:4,5][1,2,8]thiadiazacycloundecino[6,7,8-hi]indole-8-carboxylic acid 13,13-dioxide]"
2,145 nM,"CCc1c2c(nn1C)CN(CC)S(=O)(=O)CCCn1c(C(=O)O)c(CCCOc3cccc4cc(F)ccc34)c3ccc(Cl)c-2c31 (racemic) [Example 56, (rac)-4-chloro-3,14-diethyl-7-{3-[(6-fluoro-1-naphthyl)oxy]propyl}-2-methyl-11,12,14,15-tetrahydro-2H,10H-pyrazolo[3′,4′:4,5][1,2,8]thiadiazacycloundecino[6,7,8-hi]indole-8-carboxylic acid 13,13-dioxide]"
3,29.9 nM,"Cc1c2c(nn1C)C(CCN1CCOCC1)N(C)S(=O)(=O)CCCn1c(C(=O)O)c(CCCOc3cccc4cc(F)ccc34)c3ccc(Cl)c-2c31 (racemic) [Example 48, (rac)-4-chloro-7-{3-[(6-fluoro-1-naphthyl)oxy]propyl}-2,3,14-trimethyl-15-(rac)-[2-(morpholin-4-yl)ethyl]-11,12,14,15-tetrahydro-2H,10H-pyrazolo[3′,4′:4,5][1,2,8]thiadiazacycloundecino[6,7,8-hi]indole-8-carboxylic acid 13,13-dioxide (Mixture of Stereoisomers)]"
4,22 nM,"CCc1c2c(nn1C)C(CCC1CCOCC1)N(C)S(=O)(=O)CCCn1c(C(=O)O)c(CCCOc3cccc4cc(F)ccc34)c3ccc(Cl)c-2c31 (single isomer, unassigned; enantiomer 3) [Example 63, (+)-4-chloro-3-ethyl-7-{3-[(6-fluoronaphthalen-1-yl)oxy]propyl}-2,14-dimethyl-15-[2-(oxan-4-yl)ethyl]-13,13-dioxo-10,11,12,13,14,15-hexahydro-2H-13lambda^6-pyrazolo[3′,4′:4,5][1,2,8]thiadiazacycloundecino[6,7,8-hi]indole-8-carboxylic acid (Enantiomer 3)]"
5,8.74 nM,"Cc1c2c(nn1C)C(CCN1CCOCC1)N(C)S(=O)(=O)CCCn1c(C(=O)O)c(CCCOc3cccc4cc(F)ccc34)c3ccc(Cl)c-2c31 (single isomer, unassigned; enantiomer 2) [Example 67, 4-chloro-7-{3-[(6-fluoronaphthalen-1-yl)oxy]propyl}-2,3,14-trimethyl-15-[2-(morpholin-4-yl)ethyl]-13,13-dioxo-10,11,12,13,14,15-hexahydro-2H-13lambda^6-pyrazolo[3′,4′:4,5][1,2,8]thiadiazacycloundecino[6,7,8-hi]indole-8-carboxylic acid (Enantiomer 2)]"

# Target: MCL-1 (Homo sapiens (Human), UniProt Q07820, K194A/K197A/R201A)
# Experiment: Protein-compound interaction assay (SPR assay, Assay 8)
# Type: binding
# Settings: immobilized MBP-MCL-1, 25° C., geometric mean
# From the text: Assay 8 Protein-Compound Interaction Assay (SPR Assay)
# The ability of the compounds described in this invention to bind to MCL-1 may be determined using surface plasmon resonance (SPR). This allows for the quantification of binding in terms of the equilibrium dissociation constant (KD [M]), as well as association and dissociation rate constants (kon [1/M 1/s] and koff [1/s], respectively). The measurements may be performed using Biacore® T200 or Biacore® S200 instruments (GE Healthcare).
# For SPR measurements, recombinant MCL-1 (amino acids 173-321, N-terminal fused to Maltose Binding Protein (MBP) (SEQ ID 1) purchased from Beryllium (Bedford, Mass., USA)) was immobilized using standard amine coupling (Johnsson B et al, Anal Biochem. 1991 Nov. 1; 198(2):268-77). Briefly, carboxymethylated dextran biosensor chips (Series S Sensor Chip CMS, GE Healthcare) were activated with 1-ethyl-3-(3-dimethylaminopropyl)-carbodiimide hydrochloride (EDC) and N-hydroxysuccinimide (NHS) according to the supplier's instructions. MBP-MCL-1 was diluted in 1×PBS-P+ (GE Healthcare) and injected on the activated chip surface. Subsequently, a solution of 1 M ethanolamine-HCl (GE Healthcare) was injected to block unreacted groups, resulting in approximately 400-2500 response units (RU) of immobilized protein. A reference surface was generated by treatment with NHS-EDC and ethanolamine-HCl. Compounds were dissolved in 100% dimethylsulfoxide (DMSO) to a concentration of 10 mM and subsequently diluted in running buffer (1×PBS-P+ (GE Healthcare) [generated from PBS-P+ Buffer 10× (GE Healthcare): 0.2 M phosphate buffer with 27 mM KCl, 1.37 M NaCl and 0.5% Surfactant P20 (Tween 20).], 1% v/v DMSO). For SPR binding-measurements, serial dilutions of compound (eight dilution steps, typically ranging from 0.2 nM up to 1 μM) were injected over immobilized protein. […] Compounds were injected for 60 s followed by a dissociation time of up to 1000 s.
# The double-referenced sensorgrams were fit to a simple reversible Langmuir 1:1 reaction mechanism as implemented in the Biacore® T200 and S200 evaluation software (T200 evaluation software version 2.0 and S200 evaluation software version 1.0, GE Healthcare).
# Sequence of MCL-1 (Q07820 whole entry K194A/K197A/R201A, looked up): as the sequence (Q07820 whole entry) above, with K194A, K197A, R201A counted along it
SMILES,Kd,koff,kon
"CCNCC.CCc1c2c(nn1C)C(CCN1CCOCC1)N(C)S(=O)(=O)CCCn1c(C(=O)O)c(CCCOc3cccc4cc(F)ccc34)c3ccc(Cl)c-2c31 (single isomer, unassigned; enantiomer 2) [Example 76, 4-chloro-3-ethyl-7-{3-[(6-fluoronaphthalen-1-yl)oxy]propyl}-2,14-dimethyl-15-[2-(morpholin-4-yl)ethyl]-13,13-dioxo-10,11,12,13,14,15-hexahydro-2H-13lambda^6-pyrazolo[3′,4′:4,5][1,2,8]thiadiazacycloundecino[6,7,8-hi]indole-8-carboxylic acid-N-ethylethanamine Salt (Enantiomer 2)]",0.34 nM,0.0025 s⁻¹,7.3e+06 M⁻¹ s⁻¹
